US4628047A (priority 1982, dated 1986)
≈ marks a conversion by molar mass, not a printed value. Where a name gives a salt, the structure may show the parent alone. Read-outs that look alike come from different tables or passages of the source.

Key:
P388/ADM = assay: Growth inhibition of ADM-resistant P388 leukemia cells (P388/ADM); type: cell-based; conditions: for IC50: Mus musculus; for Enhancement effect: on ADM
P388 leukemia cells = assay: Growth inhibition of non-resistant P388 leukemia cells; type: cell-based; conditions: for IC50: Mus musculus
[1] = test system: ADM-resistant P388 leukemia cells; assay: Antitumor enhancement effect in mice inoculated with ADM-resistant P388 leukemia cells; type: in vivo, CDF1 female mice; conditions: diltiazem HCl 125 mg/kg alone, i.p., 10 days
[2] = test system: VCR-resistant P388 leukemia cells; assay: Antitumor enhancement effects in mice inoculated with VCR-resistant P388 leukemia cells; type: in vivo, CDF1 female mice; conditions: i.p., 10 days
[3] = test system: P388 leukemia cells having no resistance or resistance to VCR and ADM and human leukemia cells K562; assay: Antitumor enhancement effects of diltiazem in resistant and non-resistant tumor cells (summary); type: cell-based; conditions: regardless of whether the tumor cells are non-resistant or resistant
From the text: Antitumor enhancement effects of diltiazem in resistant and non-resistant tumor cells: […]

[4] = test system: P388 leukemia cells having resistance to vincristine; assay: Growth inhibition of VCR-resistant P388 leukemia cells (P388/VCR); type: cell-based; conditions: for Enhancement effect: on VCR; for IC50: Mus musculus
K562 = assay: Growth inhibition of K562 leukemia cells; type: cell-based, human; conditions: for Enhancement effect: on VCR; for IC50: Homo sapiens, K562, VCR
K562/VCR = assay: Growth inhibition of VCR-resistant K562 leukemia cells (K562/VCR); type: cell-based, human; conditions: for Enhancement effect: on VCR; for IC50: Homo sapiens, VCR
B16 melanoma cells BL-6 = assay: Antitumor enhancement effect in solid tumor cells, B16 BL-6; type: cell-based; conditions: on VCR, diltiazem 0 μM
B16 melanoma cells B2 = assay: Antitumor enhancement effect in solid tumor cells, B16 B2; type: cell-based; conditions: on VCR, diltiazem 0 μM
Colon 26 tumor cells N-5 = assay: Antitumor enhancement effect in solid tumor cells, colon 26 N-5; type: cell-based; conditions: on VCR, diltiazem 0 μM
B16 melanoma cells F1 = assay: Antitumor enhancement effect in solid tumor cells, B16 F1; type: cell-based; conditions: on VCR, diltiazem 0 μM
B16 melanoma cells F10 = assay: Antitumor enhancement effect in solid tumor cells, B16 F10; type: cell-based; conditions: on VCR, diltiazem 0 μM
Colon 26 tumor cells N-1 = assay: Antitumor enhancement effect in solid tumor cells, colon 26 N-1; type: cell-based; conditions: on VCR, diltiazem 0 μM
[5] = test system: B16 melanoma cells B16 mix; assay: Antitumor enhancement effect in solid tumor cells, B16 mix; type: cell-based; conditions: on VCR, diltiazem 0 μM
[6] = test system: Colon 26 tumor cells KL-2; assay: Antitumor enhancement effect in solid tumor cells, colon 26 KL-2; type: cell-based; conditions: on VCR, diltiazem 0 μM
[7] = test system: Colon 26 tumor cells C26 mix; assay: Antitumor enhancement effect in solid tumor cells, C26 mix; type: cell-based; conditions: on VCR, diltiazem 0 μM
[8] = test system: Colon 26 tumor cells NL-33; assay: Antitumor enhancement effect in solid tumor cells, colon 26 NL-33; type: cell-based; conditions: on VCR, diltiazem 0 μM
[9] = VCR 30 μg/kg + diltiazem HCl 60 mg/kg
[10] = VCR 30 μg/kg + diltiazem HCl 80 mg/kg
[11] = VCR 30 μg/kg + diltiazem HCl 100 mg/kg
[12] = VCR 30 μg/kg + diltiazem HCl 125 mg/kg
[13] = VCR 100 μg/kg + diltiazem HCl 60 mg/kg
[14] = VCR 100 μg/kg + diltiazem HCl 80 mg/kg
[15] = VCR 100 μg/kg + diltiazem HCl 100 mg/kg
[16] = VCR 100 μg/kg + diltiazem HCl 125 mg/kg
[17] = VCR 200 μg/kg + diltiazem HCl 60 mg/kg
[18] = VCR 200 μg/kg + diltiazem HCl 80 mg/kg
[19] = VCR 200 μg/kg + diltiazem HCl 100 mg/kg
[20] = VCR 200 μg/kg + diltiazem HCl 125 mg/kg
[21] = diltiazem hydrochloride 180 mg per day, 4 days, in addition to vincristine 1 mg/week

## COc1cccc2c1C(=O)c1c(O)c3c(c(O)c1C2=O)C[C@@](O)(C(=O)CO)C[C@@H]3O[C@H]1C[C@H](N)[C@H](O)[C@H](C)O1 [ADM, doxorubicin]
P388/ADM; ADM, diltiazem 0 μM
  IC50: 592 ± 76.8 ng/mL (≈ 1090 nM)
P388/ADM; ADM, with diltiazem 10 μM
  IC50: 133 ± 18.4 ng/mL (≈ 245 nM)
P388/ADM; ADM, with diltiazem 35 μM
  IC50: 53.7 ± 3.1 ng/mL (≈ 98.8 nM)
P388/ADM; ADM, with diltiazem 100 μM
  IC50: 30.7 ± 4.1 ng/mL (≈ 56.5 nM)
P388/ADM; read-out: concentration of doxorubicin showing 50% inhibition of the cells, with diltiazem 100 μM
  IC50: ~30 ng/mL (≈ 55.2 nM)
P388/ADM; read-out: dose for showing 50% inhibition of the tumor cells, doxorubicin alone
  IC50: 592 ng/mL (≈ 1090 nM)
P388/ADM; diltiazem 0 μM
  Enhancement effect: 1
P388 leukemia cells; P388, ADM, diltiazem 0 μM
  IC50: 10 ± 2.1 ng/mL (≈ 18.4 nM)
P388 leukemia cells; P388, ADM, with diltiazem 10 μM
  IC50: 7.7 ± 3.6 ng/mL (≈ 14.2 nM)
P388 leukemia cells; P388, ADM, with diltiazem 35 μM
  IC50: 6.9 ± 0.7 ng/mL (≈ 12.7 nM)
P388 leukemia cells; P388, ADM, with diltiazem 100 μM
  IC50: 6 ± 0.4 ng/mL (≈ 11 nM)
P388 leukemia cells; on ADM, diltiazem 0 μM
  Enhancement effect: 1

## COc1ccc([C@@H]2Sc3ccccc3N(CCN(C)C)C(=O)[C@@H]2OC(C)=O)cc1 [Diltiazem HCl]
[1]
  Survival time: 13.0 ± 0 days
[2]; [9]
  Survival time: 11.8 ± 1.9 days
  T/V: 111%
[2]; [10]
  Survival time: 13.8 ± 2.3 days
  T/C: 121%
  T/V: 130%
[2]; [11]
  Survival time: 12.2 ± 1.3 days
  T/V: 115%
[2]; [12]
  Survival time: 13.6 ± 1.9 days
  T/C: 119%
  T/V: 125%
[2]; [13]
  Survival time: 13.8 ± 1.7 days
  T/C: 121%
  T/V: 128%
[2]; [14]
  T/C: 126%
  T/V: 133%
[2]; [15]
  T/C: 132%
  T/V: 139%
[2]; [16]
  T/C: 132%
  T/V: 139%
[2]; [17]
  T/C: 130%
  T/V: 119%
[2]; [18]
  T/C: 130%
  T/V: 119%
[2]; [19]
  T/C: 139%
  T/V: 127%
[2]; [20]
  Survival time: 17.0 ± 1.2 days
  T/C: 149%
  T/V: 137%
[2]; diltiazem HCl 100 mg/kg alone
  Survival time: 11.8 ± 0.4 days
Chronic myeloplast; [21]
  both symptoms (leukocytes, splenoma): both symptoms were remarkably improved
  duration of the effect: about two
Chronic myeloplast; human, in vivo
  side effect: no side effect was observed

## COc1ccc([C@@H]2Sc3ccccc3N(CCN(C)C)C(=O)[C@@H]2OC(C)=O)cc1 [Diltiazem, d-3-acetoxy-cis-2,3-dihydro-5-[2-(dimethylamino)ethyl]-2-(p-methoxyphenyl)-1,5-benzothiazepin-4(5H)-one]
[3]
  antitumor activity of the agents (ADM, VCR): the antitumor activity of the agents is enhanced by diltiazem
P388/ADM; diltiazem 10 μM
  Enhancement effect: 4.5
P388/ADM; diltiazem 35 μM
  Enhancement effect: 11.0
P388/ADM; diltiazem 100 μM
  Enhancement effect: 19.3
[4]; diltiazem 10 μM, P388/VCR
  Enhancement effect: 9.7
[4]; diltiazem 35 μM, P388/VCR
  Enhancement effect: 28.8
[4]; diltiazem 100 μM, P388/VCR
  Enhancement effect: 54.0
P388 leukemia cells; on ADM, diltiazem 10 μM
  Enhancement effect: 1.3
P388 leukemia cells; on ADM, diltiazem 35 μM
  Enhancement effect: 1.4
P388 leukemia cells; on ADM, diltiazem 100 μM
  Enhancement effect: 1.7
P388 leukemia cells; on VCR, diltiazem 10 μM
  Enhancement effect: 1.3
P388 leukemia cells; on VCR, diltiazem 35 μM
  Enhancement effect: 3.4
P388 leukemia cells; on VCR, diltiazem 100 μM
  Enhancement effect: 4.2
K562; diltiazem 10 μM
  Enhancement effect: 1.5
K562; diltiazem 35 μM
  Enhancement effect: 2.3
K562; diltiazem 100 μM
  Enhancement effect: 3.4
K562/VCR; diltiazem 10 μM
  Enhancement effect: 8.7
K562/VCR; diltiazem 35 μM
  Enhancement effect: 48.8
K562/VCR; diltiazem 100 μM
  Enhancement effect: 77.8

## CC[C@]1(O)C[C@H]2CN(CCc3c([nH]c4ccccc34)[C@@](C(=O)OC)(c3cc4c(cc3OC)N(C=O)[C@H]3[C@@](O)(C(=O)OC)[C@H](OC(C)=O)[C@]5(CC)C=CCN6CC[C@]43[C@@H]65)C2)C1 [VCR, vincristine]
B16 melanoma cells BL-6
  ratio of IC50 dose (enhancement effect of diltiazem): 1.0
B16 melanoma cells B2
  ratio of IC50 dose (enhancement effect of diltiazem): 1.0
Colon 26 tumor cells N-5
  ratio of IC50 dose (enhancement effect of diltiazem): 1.0
B16 melanoma cells F1
  ratio of IC50 dose (enhancement effect of diltiazem): 1.0
[4]; P388, VCR, diltiazem 0 μM, P388/VCR
  IC50: 29.7 ± 2.87 ng/mL (≈ 36 nM)
[4]; P388, VCR, with diltiazem 10 μM, P388/VCR
  IC50: 3.07 ± 0.09 ng/mL (≈ 3.72 nM)
[4]; P388, VCR, with diltiazem 35 μM, P388/VCR
  IC50: 1.03 ± 0.06 ng/mL (≈ 1.25 nM)
[4]; P388, VCR, with diltiazem 100 μM, P388/VCR
  IC50: 0.55 ± 0.17 ng/mL (≈ 0.667 nM)
[4]; P388, read-out: concentration of vincristine showing 50% inhibition of the resistant cells, with diltiazem (hydrochloride) 35 μM or 100 μM
  IC50: ≤ 1 ng/mL
[4]; diltiazem 0 μM, P388/VCR
  Enhancement effect: 1
P388 leukemia cells; P388, VCR, diltiazem 0 μM
  IC50: 1.88 ± 0.13 ng/mL (≈ 2.28 nM)
P388 leukemia cells; P388, VCR, with diltiazem 10 μM
  IC50: 1.43 ± 0.12 ng/mL (≈ 1.73 nM)
P388 leukemia cells; P388, VCR, with diltiazem 35 μM
  IC50: 0.56 ± 0.06 ng/mL (≈ 0.679 nM)
P388 leukemia cells; P388, VCR, with diltiazem 100 μM
  IC50: 0.45 ± 0.02 ng/mL (≈ 0.545 nM)
P388 leukemia cells; on VCR, diltiazem 0 μM
  Enhancement effect: 1
[2]; VCR 30 μg/kg alone
  Survival time: 10.6 ± 2.1 days
  T/C: 93%
  T/V: 100%
[2]; VCR 100 μg/kg alone
  Survival time: 10.8 ± 1.3 days
  T/C: 95%
  T/V: 100%
[2]; VCR 200 μg/kg alone
  Survival time: 12.4 ± 1.0 days
  T/C: 109%
  T/V: 100%
B16 melanoma cells F10
  ratio of IC50 dose (enhancement effect of diltiazem): 1.0
Chronic myeloplast; after third administration of vincristine 1 mg per week
  number of leukocytes and splenoma: the number of leukocytes and the splenoma still increased
Chronic myeloplast; vincristine 1 mg per week and predonisolone 60 mg per day
  number of leukocytes and splenoma: the number of leukocytes and the splenoma were temporarity somewhat recovered
Colon 26 tumor cells N-1
  ratio of IC50 dose (enhancement effect of diltiazem): 1.0
[5]
  ratio of IC50 dose (enhancement effect of diltiazem): 1.0
[6]
  ratio of IC50 dose (enhancement effect of diltiazem): 1.0
K562; diltiazem 0 μM
  IC50: 2.33 ± 0.24 ng/mL (≈ 2.82 nM)
  Enhancement effect: 1
K562; with diltiazem 10 μM
  IC50: 1.52 ± 0.09 ng/mL (≈ 1.84 nM)
K562; with diltiazem 35 μM
  IC50: 1 ± 0.17 ng/mL (≈ 1.21 nM)
K562; with diltiazem 100 μM
  IC50: 0.69 ± 0.1 ng/mL (≈ 0.836 nM)
K562/VCR; diltiazem 0 μM
  IC50: 200 ± 16.3 ng/mL (≈ 242 nM)
  Enhancement effect: 1
K562/VCR; with diltiazem 10 μM
  IC50: 23 ± 2.16 ng/mL (≈ 27.9 nM)
K562/VCR; with diltiazem 35 μM
  IC50: 4.1 ± 0.36 ng/mL (≈ 4.97 nM)
K562/VCR; with diltiazem 100 μM
  IC50: 2.57 ± 0.41 ng/mL (≈ 3.12 nM)
[7]
  ratio of IC50 dose (enhancement effect of diltiazem): 1.0
[8]
  ratio of IC50 dose (enhancement effect of diltiazem): 1.0
